Laboratory results reported in patent US10435388B2, “Selective inhibitors of clinically important mutants of the EGFR tyrosine kinase” (CS PHARMATECH LIMITED, priority 2016, dated 2019).
pIC50: −log10 of the molar value. Several values for one entry are separate records, joined by “and”; a condition that tells them apart may be missing. Equal values may be shown once. Read-outs that look alike come from different tables or passages of the source.

Experiments:
[1] = test system: A431 cells (WT); assay: A431 inhibition assay (cell proliferation), Method B; assay type: cell-based, human; conditions: cellular proliferation, several runs
Protocol: Cell Proliferation Assays—Method B
A431 Inhibition Assay, (Cell Proliferation).
The rest procedure was conducted in the same manner as described above for H1975 cells.

[2] = test system: p-EGFR in A431 cells (wild type EGFR, EGF stimulated); assay: Wild type EGFR A431 autophosphorylation inhibition assay (ELISA); assay type: cell-based, human; conditions: 2 h treatment, EGF stimulation 10 min
Protocol: (§1) Cellular EGFR Autophosphorylation Assays.
Wild Type EGFR A431 Autophosphorylation Inhibition Assay (ELISA).
After 2 hour treatment with test compounds, add 4.5 μL of EGF (1 μg/mL) into each well and stimulate for 10 min. The rest of the procedure was processed in the same manner as described above for H1975 cells.

[3] = target: T1, INSR (Homo sapiens, UniProt P06213); assay: INSR inhibition assay (Caliper EZ Reader); assay type: biochemical; conditions: enzyme assay
T1 construct: purchased CARNA BIOSCIENCE 08-142
Protocol: (§2) Test compound was dissolved in DMSO at 30 mM. […] 20 nL of these compounds DMSO dilutes were dispensed into a new 384-well assay plate by Echo 550. […] 15 uL of kinase assay buffer containing INSR protein and substrate was transferred to assay plate and incubate at RT for 30 minutes. Kinase assay buffer supplemented with substrate peptides was employed as low control to monitor the background. 40 LM ATP was prepared in kinase assay buffer containing and 5 μL of ATP solution was added to each well to start the reaction. The assay plate was incubated at 25° C. for 180 minutes and the reaction was stopped by adding 40 μL of 0.5 M EDTA.
The result is analyzed in the same manner of […].

[4] = test system: H1975 cells (DM); assay: H1975 inhibition assay (cell proliferation), Method B; assay type: cell-based; conditions: cellular proliferation, several runs
[5] = target: T2, IGF-1R (Homo sapiens, UniProt P08069); assay: IGF-1R inhibition assay (Caliper EZ Reader); assay type: biochemical; conditions: enzyme assay
T2 construct: purchased CARNA BIOSCIENCE 08-141
Protocol: as §2, with “IGF-1R” for “INSR”, “μM” for “LM”
Phosphorylated fluorescent-tagged peptides were differentiated from non-phosphorylated peptides by separating using Caliper EZ Reader II and the detection was directly converted to conversion ratio.

[6] = test system: p-EGFR in H1975 cells (L858R/T790M double mutant EGFR); conditions: for IC50: Homo sapiens, NCI-H1975, 2 h, read-out: H1975 IC50 (nM), cellular EGFR autophosphorylation, 2 h treatment, ELISA
[7] = test system: PC9 cells (SM); assay: PC-9 growth inhibition assay (cell proliferation), Method B; assay type: cell-based, human; conditions: cellular proliferation, several runs
[8] = test system: p-EGFR in PC9 cells (Exon 19 deletion EGFR); assay: Exon19 deletion EGFR (activating single mutant) PC-9 cellular autophosphorylation assay; assay type: cell-based, human; conditions: 2 h treatment, ELISA
Protocol: as §1
The human lung cell line PC9 (Exon 19 deletion EGFR) is obtained from the American type Culture Collection. […] Cells are grown in a humidified incubator at 37° C. with 5% CO2, Assays to measure cellular phosphorylation of endogenous p-EGFR in cell Iysates are carried out according to the protocol described in the R&D Systems DuoSet IC Human Phospho-EGF R ELISA (R&D Systems catalogue number #DYCI095). 40 μL of cells are seeded (10000 cells/well) in growth medium in Corning black, clear-bottomed 384-well plates and incubated at 37° C., with 5%0/CO2 overnight. […] Plates are incubated for a further 2 h, then following aspiration of medium, 40 μL×lysis buffer is added to each well. Greiner black high bind 384 well plates are coated with capture antibody and then blocked with 3% BSA. Following removal of block, 15 μL of lysate are transferred to the Greiner black high bind 384 well plates and incubated for 2 hours. Following aspiration and washing of the plates with PBS, 20 μL of detection antibody are added and incubated for 2 hours. […] The data obtained with each compound are exported into a suitable software package (such as Origin) to perform curve fitting analysis.

[9] = Mouse in vivo PK study; conditions: male CDI mice
Protocol: To determine the drug concentration in plasma of NJB-342, NJB-348 and NJB-463 following intravenous and oral administration in male CDI Mice, to get the pharmacokinetic profile and PK parameters
Test animals: healthy male CDI mice (body weight 20-30 g, 18 mice, free access to food and water), provided by Sibeifu laboratory.
Dose Level and dose route: dosed the animals via intravenous injection from tail vein for IV group (1 mg/kg, 5 mL/kg, 10% DMSO/40% PEG400/50% water), dosed the animals via oral gavage for PO group (10 mg/kg, 10 mL/kg, (10% DMSO/40% PEG400/50% water), respectively.
Samples collection: the healthy animals were used, weighed the bodyweight and marked at tail and cage card prior to dosing. Blood samples (0.03 mL per time point) were collected from dorsal metatarsal vein at 0.083, 0.25, 0.5, 1, 2, 4, 8, 24 h post dose for IV group and at 0.25, 0.5, 1, 2, 4, 8, 24 h post dose for PO group, the terminal time point was collected from heart (˜0.3 mL). The blood samples were put into the tube with heparin-Na coated and then put on the cold box, centrifuged at 4° C. 4000 g, 5 minutes immediately after collecting all samples per time point to get plasma. The plasma samples were stored in a freezer at −75±15° C. prior to analysis.

[10] = Homo sapiens, A-431, cellular EGFR autophosphorylation

T2 sequence (P08069 959-1367 limits assumed): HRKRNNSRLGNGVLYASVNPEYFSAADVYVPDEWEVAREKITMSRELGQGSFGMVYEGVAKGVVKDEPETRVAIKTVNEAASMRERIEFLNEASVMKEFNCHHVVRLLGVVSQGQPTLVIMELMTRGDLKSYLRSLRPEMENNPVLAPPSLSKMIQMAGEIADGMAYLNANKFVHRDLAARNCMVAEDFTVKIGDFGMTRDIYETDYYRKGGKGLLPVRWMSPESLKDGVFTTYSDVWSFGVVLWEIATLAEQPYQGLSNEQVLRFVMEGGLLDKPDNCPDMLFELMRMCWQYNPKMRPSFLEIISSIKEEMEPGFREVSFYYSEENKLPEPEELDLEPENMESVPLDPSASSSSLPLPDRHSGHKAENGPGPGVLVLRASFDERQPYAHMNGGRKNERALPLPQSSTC
T1 sequence (P06213 989-1382 limits assumed): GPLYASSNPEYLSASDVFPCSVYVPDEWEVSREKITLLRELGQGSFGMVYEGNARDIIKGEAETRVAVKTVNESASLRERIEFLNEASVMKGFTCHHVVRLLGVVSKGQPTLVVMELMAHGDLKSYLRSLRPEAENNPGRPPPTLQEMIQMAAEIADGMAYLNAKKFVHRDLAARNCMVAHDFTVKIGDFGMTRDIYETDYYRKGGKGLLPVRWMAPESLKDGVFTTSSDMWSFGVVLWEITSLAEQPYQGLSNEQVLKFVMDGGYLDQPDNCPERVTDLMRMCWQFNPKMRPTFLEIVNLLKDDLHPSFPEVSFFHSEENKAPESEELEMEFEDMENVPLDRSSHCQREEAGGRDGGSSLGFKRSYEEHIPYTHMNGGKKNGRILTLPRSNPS

## C=CC(=O)Nc1cc(Nc2nccc(-n3nc(C(C)(C)O)c4ccccc43)n2)c(OC)cc1N(C)CCN(C)C [Example 45]
[1]; Homo sapiens, A-431, 72 h
  pIC50: 6.34
[2]; [10]
  pIC50: 7.12
[3]
  IC50: 1020 nM
[4]; Homo sapiens, NCI-H1975, 72 h
  pIC50: 8.58
[5]
  IC50: 1270 nM
[6]
  IC50: 3.83 nM
[7]; Homo sapiens, PC-9, 72 h
  pIC50: 8.36
[8]; Homo sapiens, PC-9, 2 h
  pIC50: 7.97

## C=CC(=O)Nc1cc(Nc2nccc(-c3cnc(OC)c4c3ccn4C)n2)c(OC)cc1N(C)CCN(C)C [Example 57, N-(5-(4-(7-Methoxy-1N-methyl-1H-pyrrolo[2,3-c]pyridin-4-yl)pyrimidin-2-ylamino)-2-(N-(2-(dimethylamino)ethyl)-N-methylamino)-4-methoxyphenyl) acrylamide]
[1]; Homo sapiens, A-431, 72 h
  pIC50: 6.57
[2]; [10]
  pIC50: 6.87
[3]
  IC50: 290 nM
[4]; Homo sapiens, NCI-H1975, 72 h
  pIC50: 8.29
[5]
  IC50: 207 nM
[6]
  IC50: 8.5 nM
[7]; Homo sapiens, PC-9, 72 h
  pIC50: 8.44
[8]; Homo sapiens, PC-9, 2 h
  pIC50: 7.85

## C=CC(=O)Nc1cc(Nc2nccc(-c3c[nH]c4c(OC)nccc34)n2)c(OC)cc1N(C)CCN(C)C [Example 23, N-(2-((2-(Dimethylamino)ethyl)(methyl)amino)-4-methoxy-5-((4-(7-methoxy-1H-pyrrolo[2,3-c]pyridin-3-yl)pyrimidin-2-yl)amino)phenyl) acrylamide]
[2]; [10]
  pIC50: 7.58
[3]
  IC50: 325 nM
[4]; Homo sapiens, NCI-H1975, 72 h
  pIC50: 8.61
[4]; 72 h
  pIC50: 8.58
[5]
  IC50: 271 nM
[6]
  IC50: 1.15 nM
[7]; Homo sapiens, PC-9, 72 h
  pIC50: 8.42
[7]; 72 h
  pIC50: 8.47
[8]; Homo sapiens, PC-9, 2 h
  pIC50: 8.86

## C=CC(=O)Nc1cc(Nc2nccc(-c3cnc(NC)c(C(C)=O)c3)n2)c(OC)cc1N(C)CCN(C)C [Example 27, N-(5-((4-(5-Acetyl-6-(methylamino)pyridin-3-yl)pyrimidin-2-yl)amino)-2-((2-(dimethylamino)ethyl)(methyl)amino)-4-methoxyphenyl) acrylamide]
[1]; Homo sapiens, A-431, 72 h
  pIC50: 5.79
[2]; [10]
  pIC50: 6.70
[3]
  IC50: 13200 nM
[4]; Homo sapiens, NCI-H1975, 72 h
  pIC50: 8.00
[5]
  IC50: 4820 nM
[6]
  IC50: 6.78 nM
[7]; Homo sapiens, PC-9, 72 h
  pIC50: 7.87
[8]; Homo sapiens, PC-9, 2 h
  pIC50: 7.75

## C=CC(=O)Nc1cc(Nc2nccc(-n3cc(C(C)=O)c4ccccc43)n2)c(OC)cc1N(C)CCN(C)C [Example 31, N-(5-((4-(3-Acetyl-1H-indol-1-yl)pyrimidin-2-yl)amino)-2-((2-(dimethylamino)ethyl)(methyl)amino)-4-methoxyphenyl) acrylamide]
[1]; Homo sapiens, A-431, 72 h
  pIC50: 5.97
[1]; 72 h
  pIC50: 6.03
[2]; [10]
  pIC50: 6.79
[3]
  IC50: 814 nM
[4]; Homo sapiens, NCI-H1975, 72 h
  pIC50: 7.86
[4]; 72 h
  pIC50: 7.94
[5]
  IC50: 765 nM
[6]
  IC50: 7.64 nM
[7]; Homo sapiens, PC-9, 72 h
  pIC50: 8.07
[7]; 72 h
  pIC50: 8.08
[8]; Homo sapiens, PC-9, 2 h
  pIC50: 7.86

## C=CC(=O)Nc1cc(Nc2nccc(-n3nc(NC)c4ccccc43)n2)c(OC)cc1N(C)CCN(C)C [Example 21, N-(2-((2-(Dimethylamino)ethyl)(methyl)amino)-4-methoxy-5-(4-(3-(methylamino)-1H-indazol-1-yl)pyrimidin-2-ylamino)phenyl) acrylamide]
[3]
  IC50: 134 nM
[4]; Homo sapiens, NCI-H1975, 72 h
  pIC50: 8.63
[4]; 72 h
  pIC50: 8.70 and 8.54
[5]
  IC50: 180 nM
[7]; Homo sapiens, PC-9, 72 h
  pIC50: 8.60
[7]; 72 h
  pIC50: 8.63 and 8.35
[9]; PO 10 mg/kg vs IV 1 mg/kg
  F: 27.2%
[9]; mouse, plasma, IV 1 mg/kg
  clearance: 163 mL/min/kg
[9]; mouse, plasma, IV 1 mg/kg, read-out: T1/2 (IV) (converted)
  half-life: 43.8 min
[9]; mouse, plasma, PO 10 mg/kg
  AUC: 282 ng·h/mL
  Cmax: 86 ng/mL

## C=CC(=O)Nc1cc(Nc2nccc(-n3nc(N(C)C)c4ncccc43)n2)c(OC)cc1N(C)CCN(C)C [Example 55, N-(5-(4-(3-(Dimethylamino)-1H-pyrazolo[4,3-b]pyridin-1-yl)pyrimidin-2-ylamino)-2-(N-(2-(dimethylamino)ethyl)-N-methylamino)-4-methoxyphenyl) acrylamide]
[1]; Homo sapiens, A-431, 72 h
  pIC50: 5.55
[2]; [10]
  pIC50: 6.97
[3]
  IC50: 1200 nM
[4]; Homo sapiens, NCI-H1975, 72 h
  pIC50: 8.41
[5]
  IC50: 1300 nM
[6]
  IC50: 4.07 nM
[7]; Homo sapiens, PC-9, 72 h
  pIC50: 8.04
[8]; Homo sapiens, PC-9, 2 h
  pIC50: 7.81

## C=CC(=O)Nc1cc(Nc2nccc(-n3nc(NC)c4ncccc43)n2)c(OC)cc1N(C)CCN(C)C [Example 56, N-(5-(4-(3-(Methylamino)-1H-pyrazolo[4,3-b]pyridin-1-yl)pyrimidin-2-ylamino)-2-(N-(2-(dimethylamino)ethyl)-N-methylamino)-4-methoxyphenyl) acrylamide]
[1]; Homo sapiens, A-431, 72 h
  pIC50: 6.29
[2]; [10]
  pIC50: 7.10
[3]
  IC50: 433 nM
[4]; Homo sapiens, NCI-H1975, 72 h
  pIC50: 8.56
[5]
  IC50: 637 nM
[6]
  IC50: 6.28 nM
[7]; Homo sapiens, PC-9, 72 h
  pIC50: 8.78
[8]; Homo sapiens, PC-9, 2 h
  pIC50: 8.39

## C=CC(=O)N[C@@H]1CN(c2nc(Nc3cn(C)nc3OC)c3ncn(C)c3n2)C[C@H]1F [PF-06747775]
[1]; 72 h
  pIC50: 6.18
[2]; cellular EGFR autophosphorylation
  pIC50: 7.11
[4]; 72 h
  pIC50: 7.56
[6]; read-out: H1975 IC50, cellular EGFR autophosphorylation, 2 h treatment, ELISA
  pIC50: 8.10
[7]; 72 h
  pIC50: 8.15
[8]
  pIC50: 8.13

## C=CC(=O)Nc1cc(Nc2nccc(-n3nc(NCC)c4ccccc43)n2)c(OC)cc1N(C)CCN(C)C [Example 41]
[1]; Homo sapiens, A-431, 72 h
  pIC50: 6.53
[2]; [10]
  pIC50: 6.86
[3]
  IC50: 1270 nM
[4]; Homo sapiens, NCI-H1975, 72 h
  pIC50: 8.03
[5]
  IC50: 1420 nM
[6]
  IC50: 11.9 nM
[7]; Homo sapiens, PC-9, 72 h
  pIC50: 8.12
[8]; Homo sapiens, PC-9, 2 h
  pIC50: 8.20

## C=CC(=O)Nc1cc(Nc2nccc(-c3cc(C#N)c4[nH]cc(C)c4c3)n2)c(OC)cc1N(C)CCN(C)C [Example 67, N-(5-(4-(7-Cyano-3-methyl-1H-indol-5-yl)pyrimidin-2-ylamino)-2-((2-(dimethylamino)ethyl)(methyl)amino)-4-methoxyphenyl) acrylamide]
[1]; Homo sapiens, A-431, 72 h
  pIC50: 6.30
[2]; [10]
  pIC50: 6.96
[3]
  IC50: 403 nM
[4]; Homo sapiens, NCI-H1975, 72 h
  pIC50: 8.98
[5]
  IC50: 243 nM
[6]
  IC50: 1.06 nM
[7]; Homo sapiens, PC-9, 72 h
  pIC50: 8.68
[8]; Homo sapiens, PC-9, 2 h
  pIC50: 8.32

## C=CC(=O)N1CC[C@@H](Oc2nc(Nc3ccc(N4CCC(N5CCN(C)CC5)CC4)cc3)c(C(N)=O)nc2CC)C1 [ASP8273]
[1]; Homo sapiens, A-431, 72 h
  pIC50: 6.17
[2]; [10]
  pIC50: 6.66
[4]; Homo sapiens, NCI-H1975, 72 h
  pIC50: 7.92
[6]
  IC50: 7.8 nM
[7]; Homo sapiens, PC-9, 72 h
  pIC50: 7.80
[8]; Homo sapiens, PC-9, 2 h
  pIC50: 7.43
